Test results as given in the Deep4Chem optical property database.

Test: photoluminescence quantum yield (fraction); solvent given as SMILES

NS(=O)(=O)c1ccc(N2N=C(c3ccc(O)cc3)CC2c2ccc(Cl)cc2)cc1 (centres undefined)
photoluminescence quantum yield (in C1CCOC1): 0.68
photoluminescence quantum yield (in C1COCCO1): 0.72
photoluminescence quantum yield (in CC#N): 0.65
photoluminescence quantum yield (in CC(C)O): 0.53
photoluminescence quantum yield (in CCO): 0.44
photoluminescence quantum yield (in CCOC(C)=O): 0.72
photoluminescence quantum yield (in CN(C)C=O): 0.71
photoluminescence quantum yield (in CO): 0.36
photoluminescence quantum yield (in CS(C)=O): 0.75
photoluminescence quantum yield (in O): 0.56

CCOC(=O)/N=c1/oc2cc(N(CC)CC)ccc2cc1C#N
photoluminescence quantum yield (in ClCCl): 0.85

CCc1ccc(-n2c3ccccc3c3cc4c(cc32)c2ccccc2n4-c2ccc(CC)s2)s1
photoluminescence quantum yield (in ClC(Cl)Cl): 0.023

Nc1ccc(N2C(=O)c3ccc4c5ccc6c7c(ccc(c8ccc(c3c48)C2=O)c75)C(=O)N(c2ccc(N)cc2)C6=O)cc1
photoluminescence quantum yield (in CN(C)C=O): 0.2

COc1ccc(N(c2ccc(OC)cc2)c2ccc3ccc4c(B(c5c(C)cc(C)cc5C)c5c(C)cc(C)cc5C)ccc5ccc2c3c54)cc1
photoluminescence quantum yield (in C1CCOC1): 0.19
photoluminescence quantum yield (in CC(C)=O): 0.026
photoluminescence quantum yield (in CCCCCC): 1
photoluminescence quantum yield (in Cc1ccccc1): 0.85
photoluminescence quantum yield (in ClC(Cl)Cl): 0.67
photoluminescence quantum yield (in ClCCl): 0.21

N#Cc1ccc(/C=C/c2ccc3ccc4cccc5ccc2c3c45)cc1
photoluminescence quantum yield (in CC1CCCCC1): 0.8
photoluminescence quantum yield (in CC#N): 0.26
photoluminescence quantum yield (in CO): 0.26
photoluminescence quantum yield (in Cc1ccccc1): 0.79
photoluminescence quantum yield (in ClC(Cl)Cl): 0.3

CC(C)[Si](C#Cc1c2cc3ccccc3cc2c(C#Cc2ccc(C(F)(F)F)cc2)c2cc3ccccc3cc12)(C(C)C)C(C)C
photoluminescence quantum yield (in ClCCl): 0.06

COc1cc(C2=C(c3cc(OC)c(OC)c(OC)c3)C(c3ccc(C(C)(C)C)cc3)=[N+]3C2=Nc2c(-c4cc(OC)c(OC)c(OC)c4)c(-c4cc(OC)c(OC)c(OC)c4)c(-c4ccc(C(C)(C)C)cc4)n2[B-]3(F)F)cc(OC)c1OC
photoluminescence quantum yield (in Cc1ccccc1): 0.001

Cc1ccc(-c2oc3cccc4c5c(-c6ccc(C)cc6)c(=N)oc6cccc(c2c34)c65)cc1
photoluminescence quantum yield (in ClC(Cl)Cl): 0.1

COc1ccc(C#Cc2ccc(C#Cc3ccc(P(=O)(c4ccc(C#Cc5ccc(C#Cc6ccc(OC)cc6)cc5)cc4)c4ccc(C#Cc5ccc(C#Cc6ccc(OC)cc6)cc5)cc4)cc3)cc2)cc1
photoluminescence quantum yield (in C1CCCCC1): 0.78
photoluminescence quantum yield (in C1COCCO1): 0.89
photoluminescence quantum yield (in CC#N): 0.79
photoluminescence quantum yield (in CCO): 0.86
photoluminescence quantum yield (in CS(C)=O): 0.71
photoluminescence quantum yield (in ClC(Cl)Cl): 0.77
photoluminescence quantum yield (in ClCCl): 0.73

C(=C\c1c2ccccc2cc2ccccc12)/c1ccccc1
photoluminescence quantum yield (in CC1CCCCC1): 0.46
photoluminescence quantum yield (in CC#N): 0.45

CCCCc1cc(-c2cccc(COC)c2)oc1-c1cccc(COC)c1
photoluminescence quantum yield (in ClC(Cl)Cl): 0.87

O=C(O)c1ccc(-c2nc(-c3ccccc3)c3ccccn23)cc1
photoluminescence quantum yield (in CC#N): 0.13

O=S1(=O)C(c2ccsc2)=C(c2ccsc2)c2ccccc21
photoluminescence quantum yield (in C1CCOC1): 0.005

COCCOCCOCCOCC(COCCOCCOCCOC)Oc1cc(/C=C/c2ccc(/C=C(\C#N)C(=O)c3ccccc3)cc2)c(OC(COCCOCCOCCOC)COCCOCCOCCOC)cc1/C=C/c1ccc(/C=C(\C#N)C(=O)c2ccccc2)cc1
photoluminescence quantum yield (in ClCCl): 0.23

CN(c1ccccc1)c1ccc(N(c2ccccc2)c2ccc3ccc4c(N(c5ccccc5)c5ccc(N(C)c6ccccc6)cc5)ccc5ccc2c3c54)cc1
photoluminescence quantum yield (in ClCCl): 0.01

COc1ccc2cc(-c3ccc([N+](=O)[O-])cc3)ccc2c1
photoluminescence quantum yield (in C1CCOC1): 0.006
photoluminescence quantum yield (in CC#N): 0.006
photoluminescence quantum yield (in ClC(Cl)Cl): 0.055
photoluminescence quantum yield (in ClCCl): 0.11

N#Cc1cc(/C=C/c2ccc(N(c3ccccc3)c3ccccc3)cc2)ccc1/C=C/c1ccc(/C=C/c2ccc(N(c3ccccc3)c3ccccc3)cc2)cc1C#N
photoluminescence quantum yield (in ClCCl): 0.41

CCN(CC)c1ccc2c(-c3ccccc3C(=O)O)c3c([o+]c2c1)/C(=C/c1ccc(N(C)C)cc1)CCC3
photoluminescence quantum yield (in ClCCl): 0.04

CC1=C(C)c2cccc3c2c(cc2nc4ccccc4nc23)O1
photoluminescence quantum yield (in ClCCl): 0.41

COc1ccc(C2=Cc3c4ccccc4c4ccccc4[n+]3[B-](F)(F)O2)cc1
photoluminescence quantum yield (in ClC(Cl)Cl): 0.678

N#Cc1cc2ccc(O)cc2oc1=O
photoluminescence quantum yield (in C1CCCCC1): 0.0105
photoluminescence quantum yield (in C1CCOC1): 0.00102
photoluminescence quantum yield (in CC#N): 0.00059
photoluminescence quantum yield (in CCOC(C)=O): 0.0597
photoluminescence quantum yield (in CS(C)=O): 0.00123
photoluminescence quantum yield (in ClC(Cl)Cl): 0.0509

Nc1ccc2c(ccc3[n+]2[B-](F)(F)n2c-3cc3c4ccccc4c4ccccc4c32)c1
photoluminescence quantum yield (in ClCCl): 0.81

Oc1ccccc1/C=N/C1CCCCC1/N=C/c1ccccc1O (centres undefined)
photoluminescence quantum yield (in CC#N): 0.069

CN(C)c1ccc(C2=CC3=C(c4ccc(C=O)cc4)[C@H]4c5ccccc5[C@]3(S2)c2ccccc24)cc1
photoluminescence quantum yield (in ClCCl): 0.46

CCOC(=O)/N=c1/oc2c(OC)cccc2cc1C#N
photoluminescence quantum yield (in ClCCl): 0.0034

COc1ccc(-c2cnc(/C=C/c3ccc(C#N)cc3)o2)cc1OC
photoluminescence quantum yield (in ClCCl): 0.38

CC1=c2cc3c(C)c4n(c3cc2=[N+]2C1=Cc1c3ccccc3c(C)n1[B-]2(F)F)[B-](F)(F)[N+]1=C(C)c2ccccc2C1=C4
photoluminescence quantum yield (in ClC(Cl)Cl): 0.36

c1ccc([B-]2(c3ccccc3)Oc3ccc4ccccc4c3-c3c4ccccc4nc[n+]32)cc1
photoluminescence quantum yield (in Cc1ccccc1): 0.25

FC(F)(F)C(F)(F)C(F)(F)C1=NC2=C(c3ccccc3)C=C3c4cc(-c5ccccc5)c5nc(C(F)(F)C(F)(F)C(F)(F)F)nc6c(-c7ccccc7)cc(c4c56)=C4C=C(c5ccccc5)C(=N1)C2C34 (centres undefined)
photoluminescence quantum yield (in C1CCOC1): 0.85

F[B-]1(F)n2c(c(-c3ccccc3)c3ccccc32)C(c2ccccc2)=C2C(c3ccccc3)=c3ccccc3=[N+]21
photoluminescence quantum yield (in ClCCl): 0

COCCC1=Cc2nc1ccc1[nH]c(cc1CCOC)c1nc(c(O)cc3[nH]c2cc3CCOC)C(CCOC)=C1
photoluminescence quantum yield (in Cc1ccccc1): 0.18

Cc1cc(C)n2c1C=[N+]1[N+](=C3C=NC=CN3[B-]1(F)F)[B-]2(F)F
photoluminescence quantum yield (in ClCCl): 0.57

CN(C)c1c2ccccc2cc2ccccc12
photoluminescence quantum yield (in C1CCCCC1): 0.008
photoluminescence quantum yield (in C1CCOC1): 0.01
photoluminescence quantum yield (in C1COCCO1): 0.013
photoluminescence quantum yield (in CC#N): 0.007
photoluminescence quantum yield (in CCO): 0.007
photoluminescence quantum yield (in CN(C)C=O): 0.016
photoluminescence quantum yield (in CO): 0.008
photoluminescence quantum yield (in COCCOC): 0.007
photoluminescence quantum yield (in CS(C)=O): 0.018
photoluminescence quantum yield (in O): 0.011
photoluminescence quantum yield (in OCC(O)CO): 0.068
photoluminescence quantum yield (in OCCO): 0.022

F[B-]1(F)OC(c2ccccc2)=Cc2c3ccccc3c3ccccc3[n+]21
photoluminescence quantum yield (in ClC(Cl)Cl): 0.131

COc1ccc(-c2ccc3c(c2)nnn3C[C@H](N)C(=O)O)cc1
photoluminescence quantum yield (in CO): 0.17

CCCCC1(CCCC)c2cc(C#Cc3ccc4ccc5cccc6ccc3c4c56)ccc2-c2ccc(N(c3ccccc3)c3ccccc3)cc21
photoluminescence quantum yield (in Cc1ccccc1): 0.72

Oc1ccccc1
photoluminescence quantum yield (in C1CCCCC1): 0.09

Nc1ccccc1/C=C/C(F)(F)F
photoluminescence quantum yield (in C1CCOC1): 0.77

Brc1ccc(-c2nc(-c3ccc(C#Cc4ccc(-n5c6ccccc6c6ccccc65)cc4)cc3)nc(-c3ccc(C#Cc4ccc(-n5c6ccccc6c6ccccc65)cc4)cc3)n2)cc1
photoluminescence quantum yield (in C1CCOC1): 0.68
photoluminescence quantum yield (in CC#N): 0.02
photoluminescence quantum yield (in CCCCCC): 0.9
photoluminescence quantum yield (in Cc1ccccc1): 0.96
photoluminescence quantum yield (in ClCCl): 0.65

O=[N+]([O-])c1ccc(/C=C/c2nc3c4ccccc4c4ccccc4c3o2)cc1
photoluminescence quantum yield (in CC#N): 0.2

COc1ccc(C2=[N+]3C(=Nc4c(-c5ccccc5)c(Br)c(-c5ccc(OC)cc5)n4[B-]3(F)F)C(c3ccccc3)=C2Br)cc1
photoluminescence quantum yield (in ClC(Cl)Cl): 0.1
photoluminescence quantum yield (in ClCCl): 0.1

Cc1cc(=O)oc2cc3c(cc12)c1c2ccccc2c2ccccc2c1c1c2ccccc2c2ccccc2c31
photoluminescence quantum yield (in ClC(Cl)Cl): 0.1

COc1ccc2c(c1)-c1cc3c(cc1[Si]2(c1ccccc1)c1ccccc1)-c1ccccc1[Si]3(c1ccccc1)c1ccccc1
photoluminescence quantum yield (in ClCCl): 0.4

Oc1ccc(-c2cccs2)cc1-c1nc2ccccc2s1
photoluminescence quantum yield (in CCO): 0.0473
photoluminescence quantum yield (in ClCCl): 0.0242

CC(C)(C)c1cc2c3c(c1)c1cc(C(C)(C)C)cc4c1n3B1c3c-2cccc3-c2cc(C(C)(C)C)cc3c5cc(C(C)(C)C)cc-4c5n1c23
photoluminescence quantum yield (in C1CCOC1): 0.25

CCCCCCCCC1(CCCCCCCC)c2cc(-c3ccccc3)ccc2-c2ccc(-c3ccccc3)cc21
photoluminescence quantum yield (in ClC(Cl)Cl): 0.85

CC[n+]1c(C=C2C(=O)C(C=C3N(C)c4ccccc4C3(C)C)=C2[O-])[se]c2ccccc21
photoluminescence quantum yield (in CC(C)O): 0.11

c1ccc(N(c2ccccc2)c2ccc(-c3ncnc4ccccc34)cc2)cc1
photoluminescence quantum yield (in ClCCl): 0.93

c1ccc(-c2nc3c4ccccc4c4ccccc4c3n2-c2ccccc2)cc1
photoluminescence quantum yield (in C1CCOC1): 0.588

COc1ccc(Oc2ccc3c4c(cccc24)C(=O)N(c2c(C(C)C)cccc2C(C)C)C3=O)cc1
photoluminescence quantum yield (in ClCCl): 0.002

c1cc2ccc1-c1ccc(cc1)-c1ccc([se]1)-c1ccc(cc1)-c1ccc(cc1)-c1ccc([se]1)-c1ccc(cc1)-c1ccc(cc1)-c1ccc-2[se]1
photoluminescence quantum yield (in C1CCOC1): 0.08

N#Cc1nn(-c2ccc(Cl)cc2)nc1N1CCCC1
photoluminescence quantum yield (in CC#N): 0.829

F[Si-](F)(c1ccccc1)(c1ccccc1)c1c2ccccc2cc2ccccc12
photoluminescence quantum yield (in C1CCOC1): 0.76

CCCCC1=Cc2c3ccc4cccc5ccc(c6cc(-c7ccccc7)n(c26)P1(=O)c1ccccc1)c3c45 (centres undefined)
photoluminescence quantum yield (in C1CCCCC1): 0.64
photoluminescence quantum yield (in C1CCOC1): 0.51
photoluminescence quantum yield (in C1COCCO1): 0.55
photoluminescence quantum yield (in CC#N): 0.54
photoluminescence quantum yield (in CC(C)=O): 0.56
photoluminescence quantum yield (in CO): 0.51
photoluminescence quantum yield (in Cc1ccccc1): 0.6
photoluminescence quantum yield (in ClC(Cl)Cl): 0.56
photoluminescence quantum yield (in ClCCl): 0.57

O=C1/C(=C2\Sc3ccccc3C2=O)Sc2ccccc21
photoluminescence quantum yield (in C1COCCO1): 0.54
photoluminescence quantum yield (in CN(C)C=O): 0.353
photoluminescence quantum yield (in CO): 0.035
photoluminescence quantum yield (in CS(C)=O): 0.013
photoluminescence quantum yield (in c1ccccc1): 0.72

CC(C)(C)c1cc(-c2cc3c(cc(-c4cc(C(C)(C)C)cc(C(C)(C)C)c4)n3-c3ccc(C(=C(c4ccccc4)c4ccccc4)c4ccccc4)cc3)n2-c2ccc(C(=C(c3ccccc3)c3ccccc3)c3ccccc3)cc2)cc(C(C)(C)C)c1
photoluminescence quantum yield (in ClCCl): 0.0013
